The values below come from ChEMBL document CHEMBL3414518, “Development of selective DprE1 inhibitors: Design, synthesis, crystal structure and antitubercular activity of benzothiazolylpyrimidine-5-carboxamides” (Eur J Med Chem, 2015).

Values after ≈ are worked out from the molar mass of the structure shown.

For orientation: MIC means the least concentration at which growth counts as inhibited. Lower therefore signals inhibition by little substance. The IC50 is the concentration at which inhibition is half-maximal. A lower IC50 goes with higher potency. A word on the logD: it is lipophilicity at a set pH, counting ionised and neutral species. By Cmax is commonly meant the highest concentration seen after dosing. Broadly, the Tmax is the time from dosing to the highest level. By AUC(0-inf) is commonly meant the area under the concentration-time curve extrapolated to infinity. By bioavailability is commonly meant the share of a dose that reaches the circulation, judged against a reference dose that is usually intravenous. Higher therefore signals good availability.

Data set [1] has as its system Mycobacterium tuberculosis. Put plainly: Antitubercular activity against Mycobacterium tuberculosis H37Rv ATCC 27294 after 5 days by broth microdilution method. In kind it is functional. The note with it: H37Rv ATCC 27294, 120 h. A general note: Broth dilution looks for growth in wells or tubes with falling amounts of substance.
Data set [2] is described as follows: Inhibition of Mycobacterium tuberculosis DprE1 using beta-D-ribofuranose as substrate after 7 mins by UV-Visible spectroscopy.
Data set [3] can be described thus: Partition coefficient, log P of the compound in PBS at 10 mM at pH 7.4 after 5 hrs by shake flask method. Type of data set: physicochemical.
Data set [4] in a line: Cmax in Sprague-Dawley rat at 10 mg/kg, iv. In kind it is ADME, organism-based. The note with it: in vivo. More on the design: dose 10 mg/kg, route intravenous.
Data set [5] can be described thus: Elimination half life in Sprague-Dawley rat at 20 mg/kg, po. In kind it is ADME, organism-based. The arrangement: dose 20 mg/kg, route oral. The following applies: in vivo, read-out: beta t1/2 (converted).
Data set [6] is described as follows: Tmax in Sprague-Dawley rat at 20 mg/kg, po. Type of data set: ADME, organism-based. More on the design: dose 20 mg/kg, route oral. The note with it: in vivo.
Data set [7] is described as follows: Elimination half life in Sprague-Dawley rat at 10 mg/kg, iv. Type of data set: ADME, organism-based. The following applies: in vivo, read-out: beta t1/2 (converted). More on the design: dose 10 mg/kg, route intravenous.
Data set [8] is described as follows: AUC (0 to infinity) in Sprague-Dawley rat at 20 mg/kg, po. Type of data set: ADME, organism-based. The arrangement: time infinity, dose 20 mg/kg, route oral. The following applies: plasma.
A short description of data set [9]: Oral bioavailability in Sprague-Dawley rat at 20 mg/kg. The note with it: in vivo. In kind it is ADME, organism-based.
A short description of data set [10]: Cmax in Sprague-Dawley rat at 20 mg/kg, po. The following applies: in vivo. The arrangement: dose 20 mg/kg, route oral. Type of data set: ADME, organism-based.
Data set [11] is described as follows: AUC (0 to infinity) in Sprague-Dawley rat at 10 mg/kg, iv. In kind it is ADME, organism-based. The arrangement: time infinity, dose 10 mg/kg, route intravenous. The note with it: plasma.

For `CC1=C(C(=O)Nc2nc3ccccc3s2)C(c2ccccc2)NC(=S)N1` (stereo not given), the MIC in [1] was found to be 0.08 µM (≈ 0.0304 µg/mL). Moreover, the IC50 in data set [2] is 7.7 µM. This molecule showed a logD at 5 h in [3] of 2.03. Also, the highest concentration (Cmax) was 1800 ng/mL in [4] and 590 ng/mL in data set [10]. The half-life in data set [5] is 5.5 h; in [7], 2.6 h. Besides, in [6], the Tmax was 0.5 h. Also, the results for the AUC(0-inf) in [8] and in data set [11] were 790 ng·h/mL and 1500 ng·h/mL, respectively. In data set [9], the bioavailability stood at 52.7%.

In the case of `CC1=C(C(=O)Nc2nc3ccccc3s2)C(c2ccccc2Cl)NC(=S)N1` (stereo not given), inhibition of growth in [1] (MIC) required 0.32 µM (≈ 0.133 µg/mL).

Molecule `CC1=C(C(=O)Nc2nc3ccccc3s2)C(c2ccc(Cl)cc2)NC(=S)N1` (stereo not given) showed an MIC in data set [1] of 0.32 µM (≈ 0.133 µg/mL).

For `CC1=C(C(=O)Nc2nc3ccccc3s2)C(c2ccc(Cl)cc2Cl)NC(=S)N1` (stereo not given), in data set [1], the MIC was found to be 0.25 µM (≈ 0.112 µg/mL).

`CC1=C(C(=O)Nc2nc3ccccc3s2)C(c2ccc(F)cc2)NC(=S)N1` (stereo not given): in [1], the MIC turned out to be 0.09 µM (≈ 0.0359 µg/mL). For the same molecule, the IC50 in data set [2] came out at 9.2 µM. In data set [3], this molecule came in with a logD at 5 h of 2.18. The results for the Cmax in data set [4] and in data set [10] were 1500 ng/mL and 340 ng/mL, respectively. Besides, the results for the half-life in data set [5] and in data set [7] were 5.8 h and 2.8 h, respectively. For the same molecule, the Tmax in [6] was determined as 0.6 h. Besides, the figures for the AUC(0-inf) in data set [8] and in [11] were 810 ng·h/mL and 1530 ng·h/mL, respectively. In data set [9], the bioavailability came out at 51.9%.

`CC1=C(C(=O)Nc2nc3ccccc3s2)C(c2ccc(C(F)(F)F)cc2)NC(=S)N1` (stereo not given) gave an MIC in [1] of 0.09 µM (≈ 0.0404 µg/mL). Half-maximal inhibition in [2] (IC50) required 11.1 µM. In addition, the logD at 5 h in data set [3] came out at 2.92. For the same molecule, the figures for the Cmax in data set [4] and in [10] were 1730 ng/mL and 490 ng/mL, respectively. Further, the half-life is 6 h in data set [5] and 2.6 h in [7]. Also, the time to peak (Tmax) in [6] is 0.6 h. The AUC(0-inf) in [8] was 830 ng·h/mL; in data set [11], 1640 ng·h/mL. Further, in data set [9], the bioavailability came out at 50.6%.

Turning to `CC1=C(C(=O)Nc2nc3ccccc3s2)C(c2ccc(Br)cc2)NC(=S)N1` (stereo not given), the lowest concentration to inhibit growth in [1] (MIC) was 0.4 µM (≈ 0.184 µg/mL).

Turning to `CC1=C(C(=O)Nc2nc3ccccc3s2)C(c2ccccc2[N+](=O)[O-])NC(=S)N1` (stereo not given), it took 1.2 µM (≈ 0.511 µg/mL) to inhibit growth in data set [1] (MIC).

On to `CC1=C(C(=O)Nc2nc3ccccc3s2)C(c2cccc([N+](=O)[O-])c2)NC(=S)N1` (stereo not given), for which, in data set [1], the lowest concentration to inhibit growth (MIC) was 1.3 µM (≈ 0.553 µg/mL).

On to `CC1=C(C(=O)Nc2nc3ccccc3s2)C(c2ccc([N+](=O)[O-])cc2)NC(=S)N1` (stereo not given), for which it took 1.2 µM (≈ 0.511 µg/mL) to inhibit growth in data set [1] (MIC).

In data set [1], `COc1ccccc1C1NC(=S)NC(C)=C1C(=O)Nc1nc2ccccc2s1` (stereo not given) yielded an MIC of 0.5 µM (≈ 0.205 µg/mL).

For the molecule `COc1ccc(C2NC(=S)NC(C)=C2C(=O)Nc2nc3ccccc3s2)cc1` (stereo not given), in data set [1], the MIC was 0.5 µM (≈ 0.205 µg/mL).

Turning to `CC1=C(C(=O)Nc2nc3ccccc3s2)C(c2ccccc2O)NC(=S)N1` (stereo not given), in data set [1], the MIC came out at 2.4 µM (≈ 0.952 µg/mL).

On to `CC1=C(C(=O)Nc2nc3ccccc3s2)C(c2ccc(O)cc2)NC(=S)N1` (stereo not given), for which, in data set [1], the MIC stood at 2.4 µM (≈ 0.952 µg/mL).

In turn, `CC1=C(C(=O)Nc2nc3ccccc3s2)C(c2ccc(N(C)C)cc2)NC(=S)N1` (stereo not given) returned an MIC in data set [1] of 0.08 µM (≈ 0.0339 µg/mL). The molecule further showed an IC50 in [2] of 10.3 µM. The logD at 5 h in data set [3] was 2.22. Besides, the Cmax in [4] is 1620 ng/mL; in data set [10], 410 ng/mL. The half-life in data set [5] is 1.4 h; in data set [7] it was 2.5 h. In addition, the Tmax in data set [6] came to 0.5 h. Besides, the figures for the AUC(0-inf) in [8] and in data set [11] were 780 ng·h/mL and 1480 ng·h/mL, respectively. In [9], this molecule came in with a bioavailability of 52.7%.

On to `COc1ccc(C2NC(=S)NC(C)=C2C(=O)Nc2nc3ccccc3s2)cc1O` (stereo not given), for which, in data set [1], the MIC turned out to be 1.2 µM (≈ 0.512 µg/mL).

`COc1cccc(C2NC(=S)NC(C)=C2C(=O)Nc2nc3ccccc3s2)c1O` (stereo not given) displayed an MIC in data set [1] of 1.4 µM (≈ 0.597 µg/mL).

`COc1cc(C2NC(=S)NC(C)=C2C(=O)Nc2nc3ccccc3s2)cc(OC)c1O` (stereo not given) returned an MIC in data set [1] of 1.2 µM (≈ 0.548 µg/mL).

`COC(=O)c1ccc(C2NC(=S)NC(C)=C2C(=O)Nc2nc3ccccc3s2)cc1` (stereo not given) returned an MIC in data set [1] of 3.1 µM (≈ 1.36 µg/mL).

In data set [1], `NNC(=O)c1ccncc1` [ISONIAZID] returned an MIC of 0.2 µM (≈ 0.0274 µg/mL).
